Reference: publication PMC4014698 (Pharmaceuticals, 2014)
In brackets after ≈: the same amount, converted by molar mass. Non-standard residues stand in square brackets, D forms with d. Residues, ends and D or L forms follow the SMILES beside them.

Experiments:
[1] = system: Pseudomonas aeruginosa (6 different isolates); conditions: geometric mean of the MIC values from 6 different isolates of P. aeruginosa; Table 3B
From the text: (§1) P. aeruginosa strains used are as follows: strain PAO1 was isolated from a human wound in 1955 in Australia; strain WR5 was isolated from a burn patient at Walter Reed Army Hospital, Washington, DC, USA, in 1976 and is a natural toxA^− mutant, but is virulent in experimental mouse models; strain PAK was originally isolated at Memorial University, St. John’s, Newfoundland, Canada, and is widely used in the analysis of pili; strain PA14 was originally isolated as a clinical isolate in 1995 at the Massachusetts General Hospital, Boston, MA, USA and is virulent in a variety of plant and animal models of infection; strain M2 was originally isolated in 1975 from the gastrointestinal tract of a healthy CF1 mouse, University of Cincinnati College of Medicine, and Shriners Burns Institute, Cincinnati, OH, USA and is virulent in a burn mouse model of P. aeruginosa infection; and strain CP204 was isolated from a cystic fibrosis patient in 1989 at the National Jewish Medical and Research Center, Denver, CO, USA. All strains have been maintained at −80 °C in the laboratory of Michael Vasil, University of Colorado, School of Medicine.
(§2) The minimal inhibitory concentration (MIC) is defined as the lowest peptide concentration that inhibited bacterial growth. MICs were measured by a standard microtiter dilution method in Mueller Hinton (MH) medium. Briefly, cells were grown overnight at 37 °C in MH broth and were diluted in the same medium. […] The plates were incubated at 37 °C for 24 h, and the MICs were determined.
Geometric mean of MIC values was calculated to provide an overall view of antimicrobial activity of different analogs.

[2] = system: A. baumannii strain 899; type: cell-based, Acinetobacter baumannii; conditions: source perineum; Mueller-Hinton medium, 37 °C, 24 h, 5 × 10^5 CFU/mL; three sets of determinations
From the text: (§3) All the A. baumannii strains used in this study were (1) obtained from the collection of Dr. Anthony A. Campagnari at the University of Buffalo and originally isolated from different patients and organs/tissues (strain 649, blood; strain 689, groin; strain 759, gluteus; strain 821, urine; strain 884, axilla; strain 899, perineum; strain 964, throat; strain 985, pleural fluid and strain 1012, sputum); (2) were purchased from the American Type Culture Collection (ATCC, Manassas, VA, USA) (strain ATCC 17978, fatal meningitis; and strain ATCC 19606, urine).
(§4) The minimal inhibitory concentration (MIC) is defined as the lowest peptide concentration that inhibited bacterial growth. MICs were measured by a standard microtiter dilution method in Mueller Hinton (MH) medium. Briefly, cells were grown overnight at 37 °C in MH broth and were diluted in the same medium. Serial dilutions of the peptides were added to the microtiter plates in a volume of 50 µL, followed by the addition of 50 µL of bacteria to give a final inoculum of 5 × 10^5 colony-forming units (CFU)/mL. The plates were incubated at 37 °C for 24 h, and the MICs were determined.

[3] = system: A. baumannii strain 985; type: cell-based, Acinetobacter baumannii; conditions: source pleural fluid; Mueller-Hinton medium, 37 °C, 24 h, 5 × 10^5 CFU/mL; three sets of determinations
From the text: as §3, §4

[4] = system: A. baumannii strain 964; type: cell-based, Acinetobacter baumannii; conditions: source throat; Mueller-Hinton medium, 37 °C, 24 h, 5 × 10^5 CFU/mL; three sets of determinations
From the text: as §3, §4

[5] = system: A. baumannii strain 1012; type: cell-based, Acinetobacter baumannii; conditions: source sputum; Mueller-Hinton medium, 37 °C, 24 h, 5 × 10^5 CFU/mL; three sets of determinations
From the text: as §3, §4

[6] = system: A. baumannii strain 689; type: cell-based, Acinetobacter baumannii; conditions: source groin; Mueller-Hinton medium, 37 °C, 24 h, 5 × 10^5 CFU/mL; three sets of determinations
From the text: as §3, §4

[7] = system: A. baumannii strain ATCC 17978; type: cell-based, Acinetobacter baumannii; conditions: ATCC 17978, 24 h
From the text: as §3, §4

[8] = system: Acinetobacter baumannii (11 different isolates); type: cell-based; conditions: geometric mean of the MIC values from 11 different isolates of A. baumannii; Table 3A
From the text: as §3, §4
Antibacterial activities against six strains of P. aeruginosa and eleven strains of A. baumannii are compared in Table 3. Geometric mean of MIC values was calculated to provide an overall view of antimicrobial activity of different analogs. It is clear that our peptides were effective in killing the microorganisms tested. Compared to a dramatic reduction in hemolytic activity, antibacterial activity of D-piscidin 1 and D-dermaseptin S4 analogs against eleven strains of A. baumannii maintained the same level (within 2-fold) upon the substitution of “specificity determinant(s)” (Table 3).

[9] = system: human erythrocytes; test: Hemolytic activity (HC50); type: cell-based; conditions: for Hemolytic activity HC50: concentration giving 50% hemolysis after 18 h at 37 °C, 1% human erythrocytes in PBS pH 7.4, hemoglobin release at 570 nm, 100% control water (Figure 7)
Procedure: Hemoglobin release was determined spectrophotometrically at 570 nm.
From these plots, the HC50 values, the peptide concentration that produces 50% hemolysis of human red blood cells after 18 hours in the standard microtiter dilution method was determined.

[10] = system: P. aeruginosa strain CP204; conditions: source cystic fibrosis patient; Mueller-Hinton medium, 37 °C, 24 h, 5 × 10^5 CFU/mL; three sets of determinations
From the text: as §1, §2

[11] = system: P. aeruginosa strain M2; conditions: source burn mouse model; Mueller-Hinton medium, 37 °C, 24 h, 5 × 10^5 CFU/mL; three sets of determinations
From the text: as §1, §2

[12] = system: P. aeruginosa strain PAO1; conditions: source human wound; Mueller-Hinton medium, 37 °C, 24 h, 5 × 10^5 CFU/mL; three sets of determinations
From the text: as §1, §2

[13] = system: P. aeruginosa strain WR5; conditions: source burn patient; Mueller-Hinton medium, 37 °C, 24 h, 5 × 10^5 CFU/mL; three sets of determinations
From the text: as §1, §2

[14] = system: P. aeruginosa strain PAK; conditions: Mueller-Hinton medium, 37 °C, 24 h, 5 × 10^5 CFU/mL; three sets of determinations
From the text: as §1, §2

[15] = system: P. aeruginosa strain PA14; conditions: Mueller-Hinton medium, 37 °C, 24 h, 5 × 10^5 CFU/mL; three sets of determinations
From the text: as §1, §2

[16] = system: A. baumannii strain 649; test: MIC, microtiter dilution; type: cell-based, Acinetobacter baumannii; conditions: source blood; Mueller-Hinton medium, 37 °C, 24 h, 5 × 10^5 CFU/mL; three sets of determinations
From the text: as §3, §4

[17] = system: A. baumannii strain 884; test: MIC, microtiter dilution; type: cell-based, Acinetobacter baumannii; conditions: source axilla; Mueller-Hinton medium, 37 °C, 24 h, 5 × 10^5 CFU/mL; three sets of determinations
From the text: as §3, §4

[18] = system: A. baumannii strain 759; test: MIC, microtiter dilution; type: cell-based, Acinetobacter baumannii; conditions: source gluteus; Mueller-Hinton medium, 37 °C, 24 h, 5 × 10^5 CFU/mL; three sets of determinations
From the text: as §3, §4

[19] = system: A. baumannii strain 821; test: MIC, microtiter dilution; type: cell-based, Acinetobacter baumannii; conditions: source urine; Mueller-Hinton medium, 37 °C, 24 h, 5 × 10^5 CFU/mL; three sets of determinations
From the text: as §3, §4

[20] = system: A. baumannii strain ATCC 19606; test: MIC, microtiter dilution; type: cell-based, Acinetobacter baumannii; conditions: source urine; Mueller-Hinton medium, 37 °C, 24 h, 5 × 10^5 CFU/mL; three sets of determinations
From the text: as §3, §4

Structure (SMILES)	MIC GM [1] [µM]	MIC 899 [2] [µM]	MIC 985 [3] [µM]	MIC 964 [4] [µM]	MIC 1012 [5] [µM]	MIC 689 [6] [µM]	MIC ATCC17978 [7] [µM]	MIC GM [8] [µM]	Hemolytic activity HC50 [9] [µM]	MIC CP204 [10] [µM]	MIC M2 [11] [µM]	MIC PAO1 [12] [µM]	MIC WR5 [13] [µM]	MIC PAK [14] [µM]	MIC PA14 [15] [µM]	MIC 649 [16] [µM]	MIC 884 [17] [µM]	MIC 759 [18] [µM]	MIC 821 [19] [µM]	MIC ATCC19606 [20] [µM]	further results
CSCC[C@@H](NC(=O)[C@@H](Cc1c[nH]c2ccccc12)NC(=O)[C@@H](CC(C)C)NC(=O)[C@@H](C)N)C(=O)N[C@@H](C(=O)N[C@H](CC(C)C)C(=O)N[C@H](CCCCN)C(=O)N[C@H](CCCCN)C(=O)N[C@H](CCCCN)C(=O)N[C@@H](C(=O)N[C@H](CC(C)C)C(=O)N[C@H](CCCCN)C(=O)N[C@H](C)C(=O)N[C@H](CCCCN)C(=O)N[C@H](C)C(=O)N[C@H](CCCCN)C(=O)N[C@H](C)C(=O)N[C@H](CC(C)C)C(=O)N[C@H](CC(N)=O)C(=O)N[C@H](C)C(=O)N[C@@H](C(=O)N[C@H](CC(C)C)C(=O)N[C@@H](C(=O)NCC(=O)N[C@H](C)C(=O)N[C@H](CC(N)=O)C(=O)N[C@H](C)C(N)=O)C(C)C)C(C)C)C(C)C)[C@H](C)O [D-Dermaseptin S4 L7K,A14K] (H-[dA][dL][dW][dM][dT][dL][dK][dK][dK][dV][dL][dK][dA][dK][dA][dK][dA][dL][dN][dA][dV][dL][dV]G[dA][dN][dA]-NH2)	4.9 (≈ 14 µg/mL)	1.4 (≈ 3.99 µg/mL)	0.7 (≈ 2 µg/mL)	2.7 (≈ 7.7 µg/mL)	2.7 (≈ 7.7 µg/mL)	0.7 (≈ 2 µg/mL)	0.7 (≈ 2 µg/mL)	1.1 (≈ 3.14 µg/mL)	241	1.4 (≈ 3.99 µg/mL)	21.9 (≈ 62.4 µg/mL)	5.5 (≈ 15.7 µg/mL)	11.0 (≈ 31.4 µg/mL)	1.4 (≈ 3.99 µg/mL)	5.5 (≈ 15.7 µg/mL)	0.7 (≈ 2 µg/mL)	1.4 (≈ 3.99 µg/mL)	1.4 (≈ 3.99 µg/mL)	0.7 (≈ 2 µg/mL)	0.7 (≈ 2 µg/mL)	–
CSCC[C@@H](NC(=O)[C@@H](Cc1c[nH]c2ccccc12)NC(=O)[C@@H](CC(C)C)NC(=O)[C@@H](C)N)C(=O)N[C@@H](C(=O)N[C@H](CC(C)C)C(=O)N[C@H](CC(C)C)C(=O)N[C@H](CCCCN)C(=O)N[C@H](CCCCN)C(=O)N[C@@H](C(=O)N[C@H](CC(C)C)C(=O)N[C@H](CCCCN)C(=O)N[C@H](C)C(=O)N[C@H](C)C(=O)N[C@H](C)C(=O)N[C@H](CCCCN)C(=O)N[C@H](C)C(=O)N[C@H](CC(C)C)C(=O)N[C@H](CC(N)=O)C(=O)N[C@H](C)C(=O)N[C@@H](C(=O)N[C@H](CC(C)C)C(=O)N[C@@H](C(=O)NCC(=O)N[C@H](C)C(=O)N[C@H](CC(N)=O)C(=O)N[C@H](C)C(N)=O)C(C)C)C(C)C)C(C)C)[C@H](C)O [D-Dermaseptin S4] (H-[dA][dL][dW][dM][dT][dL][dL][dK][dK][dV][dL][dK][dA][dA][dA][dK][dA][dL][dN][dA][dV][dL][dV]G[dA][dN][dA]-NH2)	12.6 (≈ 35 µg/mL)	1.4 (≈ 3.89 µg/mL)	0.7 (≈ 1.94 µg/mL)	1.4 (≈ 3.89 µg/mL)	2.8 (≈ 7.78 µg/mL)	1.4 (≈ 3.89 µg/mL)	2.8 (≈ 7.78 µg/mL)	1.8 (≈ 5 µg/mL)	0.6	11.3 (≈ 31.4 µg/mL)	11.3 (≈ 31.4 µg/mL)	11.3 (≈ 31.4 µg/mL)	11.3 (≈ 31.4 µg/mL)	11.3 (≈ 31.4 µg/mL)	22.5 (≈ 62.5 µg/mL)	1.4 (≈ 3.89 µg/mL)	2.8 (≈ 7.78 µg/mL)	1.4 (≈ 3.89 µg/mL)	2.8 (≈ 7.78 µg/mL)	2.8 (≈ 7.78 µg/mL)	Hemolytic activity Fold improvement in HC50 [9]: 1.0 fold
CC[C@@H](C)[C@@H](NC(=O)CNC(=O)[C@@H](CCCNC(=N)N)NC(=O)[C@@H](Cc1ccccc1)NC(=O)[C@H](NC(=O)[C@@H](Cc1c[nH]cn1)NC(=O)[C@@H](Cc1c[nH]cn1)NC(=O)[C@@H](Cc1ccccc1)NC(=O)[C@H](N)Cc1ccccc1)[C@H](C)CC)C(=O)N[C@@H](C(=O)N[C@H](Cc1c[nH]cn1)C(=O)N[C@@H](C(=O)N[C@H](CCCCN)C(=O)N[C@H](CCCCN)C(=O)N[C@@H](C(=O)N[C@@H](C(=O)N[C@H](Cc1c[nH]cn1)C(=O)N[C@H](CCCNC(=N)N)C(=O)N[C@H](CC(C)C)C(=O)N[C@@H](C(=O)N[C@@H](C(=O)NCC(N)=O)[C@H](C)O)C(C)C)[C@H](C)CC)[C@H](C)O)C(C)C)C(C)C [D-Piscidin 1 G13K] (H-[dF][dF][dH][dH][dI][dF][dR]G[dI][dV][dH][dV][dK][dK][dT][dI][dH][dR][dL][dV][dT]G-NH2)	21.1 (≈ 55.8 µg/mL)	5.9 (≈ 15.6 µg/mL)	3.0 (≈ 7.93 µg/mL)	5.9 (≈ 15.6 µg/mL)	5.9 (≈ 15.6 µg/mL)	5.9 (≈ 15.6 µg/mL)	5.9 (≈ 15.6 µg/mL)	5.2 (≈ 13.7 µg/mL)	7.0	47.3 (≈ 125 µg/mL)	11.8 (≈ 31.2 µg/mL)	23.7 (≈ 62.6 µg/mL)	23.7 (≈ 62.6 µg/mL)	11.8 (≈ 31.2 µg/mL)	23.7 (≈ 62.6 µg/mL)	3.0 (≈ 7.93 µg/mL)	5.9 (≈ 15.6 µg/mL)	5.9 (≈ 15.6 µg/mL)	5.9 (≈ 15.6 µg/mL)	5.9 (≈ 15.6 µg/mL)	–
